Measured values published in US20130337564A1, “Treatment of Pluripotent Cells” (Janssen Biotech, Inc., priority 2012, published 2013).
Several values for one entry are separate records, joined by “and”; a condition that tells them apart may be missing. Equal entries are not always repeated.

Key:
Type in all cases: cell-based
[1] = test system: HNF-3beta expression in human embryonic stem cells (H9 line); assay: High content screening assay: HNF-3beta protein expression (differentiation)
In short: (§1)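 H9 hESCs on MATRIGEL treated days 1-2 with 10 μM compound in DMEM:F12, 0.5% FCS, 100 ng/ml activin A; days 3-4 with 2% FCS plus activin A without compound. Fixed cells immunostained for Sox17 or HNF-3beta with Draq5 nuclear counterstain. Cell number and staining intensity quantified by high-content imaging, 12 fields/well.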

[2] = test system: cells expressing pluripotency markers derived from human embryonic stem cells; assay: MTS viability (toxicity) assay of cells expressing pluripotency markers; design: Raw data (duplicate), first replicate / Average: unit not given here; settings: for viability at 10 µM: Homo sapiens, Embryonic stem cell; for viability at 10 µM / % Control: viability of cells expressing pluripotency markers, relative to control; for Raw data (duplicate), first replicate / Raw data (duplicate), second replicate: MTS viability assay raw reading; for Raw data (duplicate), first replicate: replicate 1; for Raw data (duplicate), second replicate: replicate 2; for Average: average of duplicate MTS raw readings; for Average of raw data (duplicate), optical density at 490 nm / % Control (percentage viability of control): MTS on day 4; for % Control (percentage viability of control): relative to Activin A + Wnt3a positive control
In short: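 Cells expressing pluripotency markers, derived from human embryonic stem cells, were plated at 20,000 cells per well in 96-well clear-bottom plates and cultured overnight. Test compounds were applied in assay medium on days 1 and 2, and compound-free medium on days 3 and 4. On day 4, MTS was added and optical density at 490 nm was read in duplicate.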

[3] = test system: Sox17 expression in human embryonic stem cells (H9 line); assay: High content screening assay: Sox17 protein expression (differentiation)
In short: as §1

| SMILES | fold induction at 10 µM ([1]; Homo sapiens, Embryonic stem cell, 10 μM test compound with 100 ng/ml activin A on days 1-2, H9, total intensity by IN Cell Analyzer, strong and moderate hits, read-out: HNF3β Expression, Fold over Wnt 3a/AA control) | viability at 10 µM [2] [%] | Raw data (duplicate), first replicate [2] | Raw data (duplicate), second replicate [2] | Average [2] | fold induction at 10 µM ([3]; Homo sapiens, Embryonic stem cell, 10 μM test compound with 100 ng/ml activin A on days 1-2, H9, total intensity by IN Cell Analyzer, strong and moderate hits, read-out: SOX17 Expression, Fold over Wnt 3a/AA control) | HNF-3b Expression Total Intensity [1] | SOX-17 Expression Total Intensity [3] | Average of raw data (duplicate), optical density at 490 nm ([2]; cmpd conc 2.5 μM) | Average of raw data (duplicate), optical density at 490 nm ([2]; cmpd conc 5 μM) | Average of raw data (duplicate), optical density at 490 nm ([2]; cmpd conc 10 μM) | % Control (percentage viability of control) ([2]; cmpd conc 2.5 μM) [%] | % Control (percentage viability of control) ([2]; cmpd conc 5 μM) [%] | % Control (percentage viability of control) ([2]; cmpd conc 10 μM) [%] | % Control [2] |
| --- | --- | --- | --- | --- | --- | --- | --- | --- | --- | --- | --- | --- | --- | --- | --- |
| O=C1NC(=O)C(c2cn(CCCO)c3ncccc23)=C1c1ccccc1C(F)(F)F [Compound 16, 3-[1-(3-Hydroxypropyl)-1H-pyrrolo[2,3-b]pyridin-3-yl]-4-[2-(trifluoromethyl)phenyl]-1H-pyrrole-2,5-dione] | 1.1 | 73.7 | 0.641 | 0.601 | 0.621 | 0.648 | – | – | – | – | – | – | – | – | – |
| O=C1NC(=O)C(c2cn(CCCO)c3ncccc23)=C1c1cccs1 [Compound 17, 3-[1-(3-Hydroxypropyl)-1H-pyrrolo[2,3-b]pyridin-3-yl]-4-thiophen-2-yl-1H-pyrrole-2,5-dione] | – | 99.1 | 0.803 | 0.782 | 0.792 | – | 14201404 | 14786632 | – | – | – | – | – | – | – |
| O=C1NC(=O)C(c2cn(CCCO)c3ncccc23)=C1c1cc(Cl)sc1Cl [Compound 18, 3-(2,5-Dichlorothiophen-3-yl)-4-[1-(3-hydroxypropyl)-1H-pyrrolo[2,3-b]pyridin-3-yl]-1H-pyrrole-2,5-dione] | – | 69.9 | 0.637 | 0.554 | 0.595 | – | 28439 | 0 | – | – | – | – | – | – | – |
| COCCCn1cc(C2=C(c3ccccc3O)C(=O)NC2=O)c2cccnc21 [Compound 22, 3-(2-Hydroxyphenyl)-4-{1-[3-(methyloxy)propyl]-1H-pyrrolo[2,3-b]pyridin-3-yl}-1H-pyrrole-2,5-dione] | – | 108 | 0.900 | 0.877 | 0.888 | – | 13689421 | 2188847 | – | – | – | – | – | – | – |
| COc1ccccc1C1=C(c2cn(-c3ccc4ccccc4c3)c3ncccc23)C(=O)NC1=O [Compound 23, 3-[2-(Methyloxy)phenyl]-4-(1-naphthalen-2-yl-1H-pyrrolo[2,3-b]pyridin-3-yl)-1H-pyrrole-2,5-dione] | – | 102 | 0.882 | 0.748 | 0.815 | – | 65100086 | 7121122 | – | – | – | – | – | – | – |
| COc1ccccc1C1=C(c2cn(CCCNC(=O)OC(C)(C)C)c3ncccc23)C(=O)NC1=O [Compound 26, 1,1-Dimethylethyl [3-(3-{4-[2-(methyloxy)phenyl]-2,5-dioxo-2,5-dihydro-1H-pyrrol-3-yl}-1H-pyrrolo[2,3-b]pyridin-1-yl)propyl]carbamate] | – | 76.4 | 0.568 | 0.709 | 0.639 | – | 15725984 | 15714170 | – | – | – | – | – | – | – |
| O=C1NC(=O)C(c2nn(CCCO)c3ccccc23)=C1c1cn(-c2cccnc2)c2ccc(Cl)cc12 [Compound 52, 3-(5-Chloro-1-pyridin-3-yl-1H-indol-3-yl)-4-[1-(3-hydroxypropyl)-1H-indazol-3-yl]-1H-pyrrole-2,5-dione] | – | 110 | 0.911 | 0.884 | 0.898 | – | – | – | 0.7886 | 0.4156 | 0.1448 | – | – | – | – |
| CN(C)CCCn1c2c(c3ccccc31)C1=C(C(=O)NC1=O)N(c1cccc(Cl)c1)C2 [Compound 101, 4-(3-Chlorophenyl)-6-[3-(dimethylamino)propyl]-5,6-dihydropyrrolo[3′,4′:5,6]pyrido[3,4-b]indole-1,3(2H,4H)-dione] | – | 100 | 0.791 | 0.768 | 0.779 | – | – | – | 0.7987 | 0.7702 | 0.1390 | – | – | – | – |
| CCN1CCOCCOCCn2cc(c3ccccc32)C2=C(C(=O)NC2=O)c2cn(c3ccccc23)CC1 [Compound 103, 14-Ethyl-6,7,9,10,13,14,15,16-octahydro-12H,23H-5,26:17,22-di(metheno)dibenzo[k,q]pyrrolo[3,4-n][1,4,7,10,19]dioxatriacyclohenicosine-23,25(24H)-dione] | – | – | 0.141 | 0.162 | 0.151 | – | – | – | 0.4737 | 0.2618 | 0.1339 | 51.4 | 19.7 | 0.5 | 4.3% |
| O=C1NC(=O)C(c2cn(CCOCCOCCO)c3ccccc23)=C1c1cn(CCO)c2ccccc12 [Compound 110, 3-[1-(2-Hydroxyethyl)-1H-indol-3-yl]-4-{1-[2-({2-[(2-hydroxyethyl)oxy]ethyl}oxy)ethyl]-1H-indol-3-yl}-1H-pyrrole-2,5-dione] | – | 112 | 0.948 | 0.764 | 0.856 | – | – | – | 0.8272 | 0.7879 | 0.6747 | – | – | – | – |
| CN1CCN(C)CCn2cc(c3ccccc32)C2=C(C(=O)NC2=O)c2cn(c3ccccc23)CC1 [Compound 111, 8,11-Dimethyl-6,7,8,9,10,11,12,13-octahydro-20H-5,23:14,19-di(metheno)dibenzo[k,q]pyrrolo[3,4-n][1,4,7,10]tetraazacyclooctadecine-20,22(21H)-dione] | – | – | 0.821 | 0.841 | 0.831 | – | – | – | 0.8169 | 0.7718 | 0.6709 | 102.9 | 96.1 | 81.0 | 108.0% |
| CN1CCOCCOCCN(C)CCn2cc(c3ccccc32)C2=C(C(=O)NC2=O)c2cn(c3ccccc23)CC1 [Compound 112, 12,21-Dimethyl-11,12,13,14,16,17,20,21,22,23-decahydro-1H,10H,19H-9,4:24,29-di(metheno)dibenzo[k,q]pyrrolo[3,4-n][1,4,7,10,19,22]dioxatetraazacyclotetracosine-1,3(2H)-dione] | – | – | 0.981 | 1.056 | 1.018 | – | – | – | 0.8103 | 0.1283 | 0.1283 | 101.9 | – | – | 145.3% |
| O=C1NC(=O)C2=C1c1cn(c3ccccc13)CCOCCOCCN(Cc1cccs1)CCn1cc2c2ccccc21 [Compound 133, 14-(2-Thienylmethyl)-6,7,9,10,13,14,15,16-octahydro-12H,23H-5,26:17,22-di(metheno)dibenzo[k,q]pyrrolo[3,4-n][1,4,7,10,19]dioxatriazacyclohenicosine-23,25(24H)-dione] | – | – | 0.823 | 0.634 | 0.728 | – | – | – | 0.7939 | 0.6661 | 0.3010 | 92.8 | 75.0 | 24.1 | 98.1% |
| O=C1NC(=O)C2=C1c1cn(c3ccccc13)CCOCCOCCN(Cc1cccc3ccccc13)CCn1cc2c2ccccc21 [Compound 136, 14-(Naphthalen-1-ylmethyl)-6,7,9,10,13,14,15,16-octahydro-12H,23H-5,26:17,22-di(metheno)dibenzo[k,q]pyrrolo[3,4-n][1,4,7,10,19]dioxatriazacyclohenicosine-23,25(24H)-dione] | – | – | 0.699 and 0.697 | 0.679 and 0.695 | 0.689 and 0.696 | – | – | – | 0.8432 | 0.7935 | 0.8425 | 99.6 | 92.7 | 99.5 | 86.3% and 87.3% |
